US5182367A, “5-lipoxygenase activating protein” (priority 1990, dated 1993)

How the values were obtained:
18kD protein (FLAP) [1] = target: T1, 18kD protein (FLAP) (Homo sapiens, UniProt P20292); assay: photoaffinity labelling of the 18kD protein with 125I-L-669,083; assay type: binding; details: for inhibition of photoaffinity labelling of the 18kD protein: 125I-L-669,083 probe, result in words
T1 construct: Incubation of ^125 I-L-669,083 with neutrophil extracts followed by irradiation with ultraviolet light; from tissue; host or cells: neutrophil extracts / human leukocyte membranes (endogenous protein)
T1 sequence (P20292 1-161): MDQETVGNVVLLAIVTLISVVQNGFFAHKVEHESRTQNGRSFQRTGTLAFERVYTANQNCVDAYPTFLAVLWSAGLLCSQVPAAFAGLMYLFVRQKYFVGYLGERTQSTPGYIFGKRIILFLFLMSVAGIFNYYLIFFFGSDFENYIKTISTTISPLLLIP
Description: The cellular target of MK-886 was identified by its specific labelling with an I^125 radio-labelled photoaffinity probe (^125 I-L-669,083) and by its retention on agarose gels to which analogues of MK-886 had been bound. […] This protein co-migrated on SDS-polyacrylamide gels with the photoaffinity-labelled protein. The 18kD protein comprised a minor portion of the […]-centrifugation pellet protein and was essentially absent from other cellular fractions.
A polyclonal rabbit antibody was prepared to the N-terminal 39 amino acids of the 18kD protein. The peptide immunogen was prepared by fusion of the DNA sequence coding for the peptide to the N-terminus of Che Y protein, and its expression in and purification from E. coli (Gan, Z. R., Gene 79, 159-166 (1989)). […] When human leukocyte membranes labelled with the ^125 I-L-669,083 photoaffinity probe were immunoprecipitated with the antipeptide antibody, a single labelled protein of Mr 18,000 was observed which was absent in membranes labelled in the presence of competing MK-886.

leukotriene biosynthesis = leukotriene biosynthesis / production (cells not specified); assay type: cell-based; details: result in words, cells not given
18kD protein (FLAP) [2] = target: T2, 18kD protein (FLAP) (Rattus norvegicus, UniProt P20291); assay: elution of the 18kD protein from MK-886 analogue affinity columns; assay type: binding, rat and human; details: solubilized neutrophil membranes, result in words
T2 sequence (P20291 1-161): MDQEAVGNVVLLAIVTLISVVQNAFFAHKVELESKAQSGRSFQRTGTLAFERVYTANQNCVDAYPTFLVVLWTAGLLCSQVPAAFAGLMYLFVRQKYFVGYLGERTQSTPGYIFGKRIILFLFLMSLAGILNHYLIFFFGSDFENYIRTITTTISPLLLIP
Method: Rat peritoneal neutrophils (Ham, E. A. et al. Proc. Natn. Acad. Sci. USA 80, 4349-4353 (1983)) and human peripheral neutrophils (Boyum, A. Scand. J. Clin. Lab. Invest. (suppl. 97) 21, 77-89 (1968)) at 10^8 cells/ml were sonicated in 50 mM Tris-HCl buffer, pH 7.4, 140 mM NaCl, 2 mM EDTA, 1 mM DTT (dithiotreitol), 10% glycerol (homogenization buffer), together with the protease inhibitors 1 mM phenylmethylsulphonyl fluoride, […], and 10 mM furyl saccharine. After removal of 1000 g and 10,000 g-centrifugation pellets, the 100,000 g pellet was resuspended (3 mg/ml) in the homogenization buffer.
To purify FLAP, the microsome suspension was solubilized on ice for 30 minutes in 50 mM Tris-HCl buffer, pH 7.4, with 140 mM NaCl, 0.5 mM DTT, 5% glycerol and 1% CHAPS detergent (3-[(3-cholamidopropyl)-dimethylammonio]-1-propanesulfonate). After centrifugation for 10 minutes at 30,000 g, the supernatant was applied to 3 ml columns (6×10^9 cell equivalents per column) containing the affinity gel which was prepared by coupling MK-886 in THF (tetrahydrofuran) to pre-activated Affi-Gel 10, capping with ethanolamine,and washing with isopropanol. The columns were washed with […] solubilization buffer for 16 hours at 5° C. and eluted for 1 hour with four column volumes of buffer containing 100 μM MK-886.

[3] = tested on: rat peritoneal neutrophils; assay: A23187-stimulated LT synthesis in neutrophils; assay type: cell-based
Method: (§1) When the parental osteosarcoma 143 cells or the cells expressing 5-LO or FLAP alone were treated with the Ca^2+ ionophore A23187, no arachidonic acid metabolites were detected. […] A23187-treated rat neutrophils produced these products, as well as 5-HETE and the LTB4 metabolites 20-hydroxy LTB4 and 20-carboxy LTB4. The 5-LO/FLAP cell line produced only 14% of the neutrophil level of LTB4 (0.15 nmol/mg protein versus 1.1 nmol/mg protein), while it produced 41% as much of the LTA4 hydrolysis products (0.064 nmol 6-trans LTB4 and 0.059 nmol 6-trans-12-epi LTB4 /mg protein versus 0.18 nmol 6-trans LTB4 and 0.12 nmol 6-trans-12-epi LTB4 /mg protein).
(§2) Normal rat peritoneal neutrophils were prepared as described by Ham, E. A. et al. (1983, supra). Osteosarcoma 143 cell lines expressing 5-LO were isolated by the method of Rouzer, C. A. et al., J. Biol. Chem. 263, 10135-10140 (1988). The expression vector used contains the CMV immediate early promoter which drives the expression of the 5-LO gene, a hygromycin resistance gene as a selectable marker, and the EBV origin of replication (Rouzer et al., supra). An EcoRI fragment derived from the RBL-1 cDNA clone containing the cDNA insert for rat FLAP was cloned into the EcoRI site of the vector pSVLneo (Dixon, R. A. F. et al., Nature 326, 73-79 (1987)). […]

[4] = tested on: osteosarcoma 143 cell line expressing 5-LO and FLAP; assay: A23187-stimulated LT synthesis in the 5-LO/FLAP cell line; assay type: cell-based, human
Method: as §1, §2

[5] = tested on: leukotriene synthesis in human leukocytes; assay: inhibition of leukotriene synthesis in human leukocytes; assay type: cell-based; details: Leukocyte; human leukocytes at similar protein concentrations

SMILES | inhibition of photoaffinity labelling of the 18kD protein (18kD protein (FLAP) [1]) | elution of the 18kD protein from affinity columns/gels (18kD protein (FLAP) [2]) | inhibition of leukotriene biosynthesis / production (leukotriene biosynthesis) | IC50 (18kD protein (FLAP) [1]) [nM] | LT synthesis blocked [3] | LT synthesis blocked [4] | IC50 [5] [nM]
CC(Cc1ccc(O)c(O)c1)C(C)Cc1ccc(O)c(O)c1 (stereo not drawn) [nordihydroguairaretic acid] | nor inhibited photoaffinity labelling | neither eluted the 18kD protein | inhibitory effects on leukotriene production |  |  |  | 
CC(C)c1ccc2c(c1)c(SC(C)(C)C)c(CC(C)(C)C(=O)O)n2Cc1ccc(Cl)cc1 [MK-886, 3-[1-(4-chlorobenzyl)-3-t-butylthio-5-isopropylindol-2-yl]-2,2-dimethylpropanoic acid] |  | eluted by MK-886 |  | 80 | blocked LT synthesis | blocked LT synthesis | 100
CN1CCN(CCCN2c3ccccc3Sc3ccc(C(F)(F)F)cc32)CC1 [trifluoroperazine] | nor inhibited photoaffinity labelling |  | inhibitory effects on leukotriene production |  |  |  | 
O=c1ccc2nc3ccccc3sc-2c1Cl [L-615,919, 4-chloro-3H-phenothiazin-3-one] |  |  |  |  | blocked LT synthesis | blocked LT synthesis | 
Clc1ccc(C(c2ccc(Cl)cc2)n2cc[n+](CC(OCc3ccc(Cl)cc3Cl)c3ccc(Cl)cc3Cl)c2)cc1 (stereo not drawn) [calmidazolium] | nor inhibited photoaffinity labelling | neither eluted the 18kD protein | inhibitory effects on leukotriene production |  |  |  | 

Further lines, with some results ahead:

inhibition of photoaffinity labelling of the 18kD protein (18kD protein (FLAP) [1]) | elution of the 18kD protein from affinity columns/gels (18kD protein (FLAP) [2]) | SMILES | inhibition of leukotriene biosynthesis / production (leukotriene biosynthesis) | IC50 (18kD protein (FLAP) [1]) [nM] | LT synthesis blocked [3] | LT synthesis blocked [4] | IC50 [5] [nM]
nor inhibited photoaffinity labelling | neither eluted the 18kD protein | COc1ccc2nc3cc(OC)c(=O)c(Br)c-3sc2c1 [L-651,392] | inhibitory effects on leukotriene production |  |  |  | 
did not inhibit photoaffinity labelling | nor did they elute this protein | COc1ccc2c(c1)c(C(C)C(=O)O)c(C)n2Cc1ccc(Cl)cc1 [L-583,916, 2-(1-p-chlorobenzyl-5-methoxy-2-methylindol-3-yl)propionic acid] | do not inhibit leukotriene biosynthesis |  |  |  | 
